Consider one compound from patent US20260069531A1, “POLYMERIC LEUPROLIDE ACETATE FORMULATIONS” (Tolmar International Limited, priority 2023, published 2026).

The format of data set [1] is physicochemical. The text has this: To produce the drug/solvent bulk solution comprising the API (LA), the desired amount of the LA was combined with the solvent NMP or DMSO or combination of solvents with or without a co-solvent or other additives, in the indicated amounts (see individual experiments below). The API and solvent were combined in a glass vial or jar. Jars were mixed using the jar mill, Turbula, or shaker at room temperature until homogeneous. LA is soluble in NMP or DMSO and can load higher concentrations (at least 40% w/w). After dissolving the API in the organic solvent, the bulk solution was manually filled into syringes and capped with a tip cap. The syringes used for filling were either 1.2 mL male polypropylene syringes, 1.2 mL male cyclic olefin copolymer syringes or 1 mL male cyclic olefin copolymer syringes. Filled syringes were then packaged in labeled foil pouches with a Syringe A (polymer-solvent solution) and a desiccant pack and the pouches were sealed. After filling the syringes with the formulations, they were terminally sterilized with an external radiation dose of 30 kGy from e-beam processing. After terminal sterilization, the syringes were stored under refrigerated conditions (e.g., 2-8° C.) or accelerated conditions (>25° C. see individual experiments).

Data set [2] can be described thus: LA gelation studies of drug solutions (60° C., inversion test, HPLC content). It is filed as physicochemical. The following applies: e-beam irradiated, 150 rpm, up to 16 days. Here is the method:
Drug solutions were prepared as described above and filled into syringes or glass vials. Syringes were untreated, contained various amounts of silicone, or were plasma coated for lubrication. Samples were irradiated by e-beam irradiation at not less than 25 kGy and stored at accelerated conditions of 60° C. with agitation at 150 rpm for up to 16 days. Samples were inspected periodically to determine if the drug solution remained a solution or had formed a solid/gel by an inversion test. Samples that had “gelled” were transferred to 5° C. for subsequent testing.
The gelation rate for each sample was calculated as Rate=1/(simulated 5° C. age at time of gelation in days). The Arrhenius equation was used to determine the simulated age, assuming standard reaction rate doubling for every 10° C. increase in temperature. […] Data was analyzed using JMP. […] Container type and lubrication were not significant.
Samples were tested for leuprolide content by HPLC. Leuprolide content was then converted to leuprolide acetate by multiplying by 1.078 (based on molecular mass ratios). A marked difference in leuprolide acetate content between the gelled and non-gelled samples was seen, with the tipping point between solution and solid/gelled samples occurring at about 45% LA.

Regarding `CCNC(=O)[C@@H]1CCCN1C(=O)[C@H](CCCNC(=N)N)NC(=O)[C@H](CC(C)C)NC(=O)[C@@H](CC(C)C)NC(=O)[C@H](Cc1ccc(O)cc1)NC(=O)[C@H](CO)NC(=O)[C@H](Cc1c[nH]c2ccccc12)NC(=O)[C@H](Cc1c[nH]cn1)NC(=O)[C@@H]1CCC(=O)N1` [Leuprolide Acetate, leuprolide acetate], the “concentration of LA that can be loaded (soluble)” value in data set [1] was “at least 40 % w/w”. Besides, the “tipping point between solution and solid/gelled samples (leuprolide acetate content)” value in data set [2] is recorded as “about 45 % LA”.
